From ChEMBL document CHEMBL4334438, “Discovery of novel glycogen synthase kinase-3α inhibitors: Structure-based virtual screening, preliminary SAR and biological evaluation for treatment of acute myeloid leukemia” (Eur J Med Chem, 2019)

Legend:
[1] = biological target: Serine/threonine-protein kinase pim-1 (Homo sapiens) (UniProt P11309); assay: Inhibition of recombinant full length human Pim1 assessed as residual activity at 1 uM using KKRNRTLTV as substrate measured after 40 mins in presence of [gamma33P]ATP by scintillation counting method relative to control
Sequence of Serine/threonine-protein kinase pim-1 (Homo sapiens) (P11309 whole entry, looked up, the tested form may be a part): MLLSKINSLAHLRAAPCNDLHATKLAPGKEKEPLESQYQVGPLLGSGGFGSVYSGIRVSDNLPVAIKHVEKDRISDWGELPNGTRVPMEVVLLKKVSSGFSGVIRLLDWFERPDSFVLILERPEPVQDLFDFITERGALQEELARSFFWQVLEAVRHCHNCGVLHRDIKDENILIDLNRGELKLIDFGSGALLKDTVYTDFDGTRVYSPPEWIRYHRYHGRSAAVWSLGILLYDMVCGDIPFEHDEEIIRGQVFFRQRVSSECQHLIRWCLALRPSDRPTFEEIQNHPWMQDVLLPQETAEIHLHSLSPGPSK

[2] = biological target: Maternal embryonic leucine zipper kinase (Homo sapiens) (UniProt Q14680); assay: Inhibition of recombinant human MELK (1 to 340 residues) assessed as residual activity at 1 uM using KKLNRTLSFAEPG as substrate incubated for 40 mins in presence of [gamma-33ATP by scintillation counting based radiometry assay relative to control
Sequence of Maternal embryonic leucine zipper kinase (Homo sapiens) (Q14680 whole entry, looked up, the tested form may be a part): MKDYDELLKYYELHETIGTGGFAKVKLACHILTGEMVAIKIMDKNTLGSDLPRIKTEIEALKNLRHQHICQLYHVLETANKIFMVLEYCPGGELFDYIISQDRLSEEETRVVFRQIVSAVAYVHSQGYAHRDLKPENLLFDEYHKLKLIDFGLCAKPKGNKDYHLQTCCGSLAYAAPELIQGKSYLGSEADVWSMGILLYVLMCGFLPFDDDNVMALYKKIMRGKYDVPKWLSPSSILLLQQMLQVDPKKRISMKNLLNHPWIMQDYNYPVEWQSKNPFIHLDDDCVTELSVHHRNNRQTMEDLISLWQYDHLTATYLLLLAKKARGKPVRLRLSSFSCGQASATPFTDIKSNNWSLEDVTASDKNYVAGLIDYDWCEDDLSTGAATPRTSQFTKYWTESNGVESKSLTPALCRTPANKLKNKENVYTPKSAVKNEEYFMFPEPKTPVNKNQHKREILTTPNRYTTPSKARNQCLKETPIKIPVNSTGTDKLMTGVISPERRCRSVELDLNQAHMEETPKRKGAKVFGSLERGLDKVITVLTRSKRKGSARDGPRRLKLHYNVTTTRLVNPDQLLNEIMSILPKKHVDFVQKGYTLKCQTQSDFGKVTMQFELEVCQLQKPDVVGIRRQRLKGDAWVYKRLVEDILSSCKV

[3] = biological target: Interleukin-1 receptor-associated kinase 1 (Homo sapiens) (UniProt P51617); assay: Inhibition of human IRAK1 (194 to end residues) assessed as residual activity at 1 uM using myelin basic protein as substrate after 40 mins by [gamma-33ATP] radiometric assay relative to control
[4] = biological target: Mitogen-activated protein kinase 1 (Homo sapiens) (UniProt P28482); assay: Inhibition of recombinant full length human MAPK1 assessed as residual activity at 1 uM using myelin basic protein as substrate incubated for 40 mins in presence of [gamma-33P]ATP by scintillation counting based radiometry assay relative to control
[5] = biological target: Calcium/calmodulin-dependent protein kinase type II subunit beta (Homo sapiens) (UniProt Q13554); assay: Inhibition of recombinant human CaMK2beta (1 to 315 residues) assessed as residual activity at 1 uM using […] incubated for 40 mins in presence of [gamma-33ATP] by scintillation counting based radiometry assay relative to control
[6] = tested on: PI3-kinase p110-alpha/p85-alpha (Homo sapiens), P27986+P42336 [E545K]; assay: Inhibition of recombinant full-length human PI3K p110alpha E545K mutant/p85alpha assessed as residual activity at 1 uM assessed as residual activity at 1 uM using phosphatidylinositol-4, 5-bisphosphate as substrate incubated for 40 mins in presence of [gamma33P]ATP by scintillation counting based radiometry assay relative to control; format: protein-complex assay
[7] = biological target: Serine/threonine-protein kinase STK11 (Homo sapiens) (UniProt Q15831); assay: Inhibition of recombinant human LKB1 assessed as residual activity at 1 uM using LSNLYHQGKFLQTFCGSPLYRRR as substrate after 40 mins in presence of [gamma-33ATP] by scintillation counting based radiometry assay relative to control
Sequence of Serine/threonine-protein kinase STK11 (Homo sapiens) (Q15831 whole entry): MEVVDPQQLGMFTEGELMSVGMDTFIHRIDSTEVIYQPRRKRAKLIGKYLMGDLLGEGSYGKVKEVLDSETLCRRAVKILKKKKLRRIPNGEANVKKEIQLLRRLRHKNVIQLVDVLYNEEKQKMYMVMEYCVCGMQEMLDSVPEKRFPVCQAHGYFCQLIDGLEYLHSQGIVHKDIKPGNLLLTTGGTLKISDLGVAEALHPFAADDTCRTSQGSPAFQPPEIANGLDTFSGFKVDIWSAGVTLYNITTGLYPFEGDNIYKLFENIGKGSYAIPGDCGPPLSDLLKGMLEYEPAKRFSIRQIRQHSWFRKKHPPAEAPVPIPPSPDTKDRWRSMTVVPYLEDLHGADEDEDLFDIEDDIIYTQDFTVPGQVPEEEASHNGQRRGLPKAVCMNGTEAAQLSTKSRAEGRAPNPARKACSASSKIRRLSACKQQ

[8] = biological target: Protein kinase C iota type (Homo sapiens) (UniProt P41743); assay: Inhibition of recombinant full-length human PKCiota assessed as residual activity at 1 uM using ERMRPRKRQGSVRRRV as substrate incubated for 40 mins in presence of [gamma33P]ATP by scintillation counting based radiometry assay relative to control
[9] = biological target: Cyclin-dependent kinase-like 1 (Homo sapiens) (UniProt Q00532); assay: Inhibition of recombinant human CDKL1 (1 to 303 residues) assessed as residual activity at 1 uM using RRRFRPASPLRGP as substrate measured after 120 mins in presence of [gamma33P]ATP by scintillation counting method
[10] = biological target: Protein kinase C beta type (Homo sapiens) (UniProt P05771); assay: Inhibition of recombinant human PKCbeta1 (2 to end residues) assessed as residual activity at 1 uM using histone H1 as substrate measured after 40 mins in presence of [gamma33P]ATP by scintillation counting method relative to control
[11] = tested on: TGF-beta receptor type-1 (Homo sapiens), P36897 [T204D]; assay: Inhibition of human TGFBR1 T204D mutant (200 to end residues) assessed as residual activity at 1 uM using casein as substrate measured after 40 mins in presence of [gamma33P]ATP by scintillation counting method relative to control
Sequence of TGF-beta receptor type-1 (Homo sapiens), P36897 [T204D] (P36897 whole entry T204D): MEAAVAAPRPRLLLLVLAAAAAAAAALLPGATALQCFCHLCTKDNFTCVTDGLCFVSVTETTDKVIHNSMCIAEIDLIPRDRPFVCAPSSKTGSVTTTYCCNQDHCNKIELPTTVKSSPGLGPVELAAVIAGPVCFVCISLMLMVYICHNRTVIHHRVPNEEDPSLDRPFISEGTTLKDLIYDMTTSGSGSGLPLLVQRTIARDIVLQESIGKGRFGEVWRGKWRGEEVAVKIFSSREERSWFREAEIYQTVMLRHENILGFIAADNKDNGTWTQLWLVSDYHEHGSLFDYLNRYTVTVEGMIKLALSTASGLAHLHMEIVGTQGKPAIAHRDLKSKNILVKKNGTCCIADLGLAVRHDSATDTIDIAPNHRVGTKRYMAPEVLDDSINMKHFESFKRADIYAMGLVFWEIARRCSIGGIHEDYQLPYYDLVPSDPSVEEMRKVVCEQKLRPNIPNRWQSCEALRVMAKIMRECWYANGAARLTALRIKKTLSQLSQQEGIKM

[12] = biological target: Activin receptor type-2A (Homo sapiens) (UniProt P27037); assay: Inhibition of human ACTR2A (162 to end residues) assessed as residual activity at 1 uM using casein as substrate incubated for 120 mins in presence of [gamma-33ATP] by scintillation counting based radiometry assay relative to control
[13] = biological target: NUAK family SNF1-like kinase 1 (Homo sapiens) (UniProt O60285); assay: Inhibition of recombinant human ARK5 (2 to end residues) assessed as residual activity at 1 uM using KKKVSRSGLYRSPSMPENLNRPR as substrate incubated for 40 mins in presence of [gamma-33ATP] by scintillation counting based radiometry assay relative to control
Sequence of NUAK family SNF1-like kinase 1 (Homo sapiens) (O60285 whole entry, the tested form may be a part): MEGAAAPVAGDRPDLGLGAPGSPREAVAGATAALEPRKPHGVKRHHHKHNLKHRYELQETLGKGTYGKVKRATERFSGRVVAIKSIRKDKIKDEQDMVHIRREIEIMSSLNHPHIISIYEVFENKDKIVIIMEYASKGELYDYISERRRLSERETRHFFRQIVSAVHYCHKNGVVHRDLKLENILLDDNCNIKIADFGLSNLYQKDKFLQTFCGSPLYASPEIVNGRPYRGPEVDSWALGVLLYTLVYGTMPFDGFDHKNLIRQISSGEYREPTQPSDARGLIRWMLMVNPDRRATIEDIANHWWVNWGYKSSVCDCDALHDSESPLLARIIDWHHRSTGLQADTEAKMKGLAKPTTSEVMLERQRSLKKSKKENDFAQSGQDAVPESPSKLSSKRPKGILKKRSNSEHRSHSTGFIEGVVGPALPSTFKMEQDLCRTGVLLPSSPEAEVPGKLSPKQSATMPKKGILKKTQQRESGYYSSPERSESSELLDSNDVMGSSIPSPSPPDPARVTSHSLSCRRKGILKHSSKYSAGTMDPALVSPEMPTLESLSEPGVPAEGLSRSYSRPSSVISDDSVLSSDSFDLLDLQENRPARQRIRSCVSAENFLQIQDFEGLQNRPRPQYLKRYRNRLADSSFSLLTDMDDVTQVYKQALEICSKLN

[14] = biological target: LIM domain kinase 1 (Homo sapiens) (UniProt P53667); assay: Inhibition of recombinant human LIMK1 (285 to 638 residues) assessed as residual activity at 1 uM using cofilin as substrate after 40 mins in presence of [gamma-33ATP] by scintillation counting based radiometry assay relative to control
Homo sapiens [15] = species on record: Homo sapiens; assay: Inhibition of recombinant human MARK1 V16E/T20S mutant (2 to end residues) assessed as residual activity at 1 uM using KKKVSRSGLYRSPSMPENLNRPR as substrate incubated for 40 mins in presence of [gamma-33ATP by scintillation counting based radiometry assay relative to control
[16] = tested on: Hepatocyte growth factor receptor (Homo sapiens), P08581 [Y1230D]; assay: Inhibition of recombinant human MET A1209G/V1290L/Y1248D mutant (974 to end residues) assessed as residual activity at 1 uM using KKKGQEEEYVFIE as substrate incubated for 40 mins in presence of [gamma-33ATP by scintillation counting based radiometry assay relative to control
Homo sapiens [17] = species on record: Homo sapiens; assay: Inhibition of recombinant human Plk4 S34T mutant (1 to 273 residues) assessed as residual activity at 1 uM using casein as substrate measured after 40 mins in presence of [gamma33P]ATP by scintillation counting method relative to control
[18] = biological target: Fibroblast growth factor receptor 2 (Homo sapiens) (UniProt P21802); assay: Inhibition of recombinant human FGFR2 (456 to 770 residues) assessed as residual activity at 1 uM using poly(Glu, Tyr) 4:1 as substrate at 40 mins in presence of [gamma-33ATP] by scintillation counting based radiometry assay relative to control
Sequence of Fibroblast growth factor receptor 2 (Homo sapiens) (P21802 22-821 limits assumed): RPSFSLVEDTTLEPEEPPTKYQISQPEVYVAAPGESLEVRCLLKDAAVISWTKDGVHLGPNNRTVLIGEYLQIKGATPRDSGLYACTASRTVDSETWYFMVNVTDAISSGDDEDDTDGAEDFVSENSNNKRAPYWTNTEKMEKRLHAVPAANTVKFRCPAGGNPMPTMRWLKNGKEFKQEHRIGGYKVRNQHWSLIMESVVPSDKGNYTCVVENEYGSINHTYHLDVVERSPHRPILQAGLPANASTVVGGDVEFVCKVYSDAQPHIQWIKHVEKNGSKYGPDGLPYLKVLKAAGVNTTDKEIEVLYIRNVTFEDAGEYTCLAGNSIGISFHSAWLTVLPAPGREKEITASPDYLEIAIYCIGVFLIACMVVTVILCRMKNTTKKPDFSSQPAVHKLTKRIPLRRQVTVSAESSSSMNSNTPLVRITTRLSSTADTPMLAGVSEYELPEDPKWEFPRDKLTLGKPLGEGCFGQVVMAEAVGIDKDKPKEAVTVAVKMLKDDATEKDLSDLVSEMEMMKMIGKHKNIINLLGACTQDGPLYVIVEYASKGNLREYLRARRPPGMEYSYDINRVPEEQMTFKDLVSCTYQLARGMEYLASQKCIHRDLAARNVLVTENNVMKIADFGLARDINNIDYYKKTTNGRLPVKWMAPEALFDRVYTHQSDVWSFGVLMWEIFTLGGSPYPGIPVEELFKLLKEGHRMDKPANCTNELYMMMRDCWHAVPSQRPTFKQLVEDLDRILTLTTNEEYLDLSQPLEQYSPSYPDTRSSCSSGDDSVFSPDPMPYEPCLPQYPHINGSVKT

[19] = biological target: Serine/threonine-protein kinase MRCK beta (Homo sapiens) (UniProt Q9Y5S2); assay: Inhibition of recombinant human MRCKbeta (1 to 473 residues) assessed as residual activity at 1 uM using KKRNRTLTV as substrate measured after 40 mins in presence of [gamma33P]ATP by scintillation counting method relative to control
Sequence of Serine/threonine-protein kinase MRCK beta (Homo sapiens) (Q9Y5S2 whole entry, the tested form may be a part): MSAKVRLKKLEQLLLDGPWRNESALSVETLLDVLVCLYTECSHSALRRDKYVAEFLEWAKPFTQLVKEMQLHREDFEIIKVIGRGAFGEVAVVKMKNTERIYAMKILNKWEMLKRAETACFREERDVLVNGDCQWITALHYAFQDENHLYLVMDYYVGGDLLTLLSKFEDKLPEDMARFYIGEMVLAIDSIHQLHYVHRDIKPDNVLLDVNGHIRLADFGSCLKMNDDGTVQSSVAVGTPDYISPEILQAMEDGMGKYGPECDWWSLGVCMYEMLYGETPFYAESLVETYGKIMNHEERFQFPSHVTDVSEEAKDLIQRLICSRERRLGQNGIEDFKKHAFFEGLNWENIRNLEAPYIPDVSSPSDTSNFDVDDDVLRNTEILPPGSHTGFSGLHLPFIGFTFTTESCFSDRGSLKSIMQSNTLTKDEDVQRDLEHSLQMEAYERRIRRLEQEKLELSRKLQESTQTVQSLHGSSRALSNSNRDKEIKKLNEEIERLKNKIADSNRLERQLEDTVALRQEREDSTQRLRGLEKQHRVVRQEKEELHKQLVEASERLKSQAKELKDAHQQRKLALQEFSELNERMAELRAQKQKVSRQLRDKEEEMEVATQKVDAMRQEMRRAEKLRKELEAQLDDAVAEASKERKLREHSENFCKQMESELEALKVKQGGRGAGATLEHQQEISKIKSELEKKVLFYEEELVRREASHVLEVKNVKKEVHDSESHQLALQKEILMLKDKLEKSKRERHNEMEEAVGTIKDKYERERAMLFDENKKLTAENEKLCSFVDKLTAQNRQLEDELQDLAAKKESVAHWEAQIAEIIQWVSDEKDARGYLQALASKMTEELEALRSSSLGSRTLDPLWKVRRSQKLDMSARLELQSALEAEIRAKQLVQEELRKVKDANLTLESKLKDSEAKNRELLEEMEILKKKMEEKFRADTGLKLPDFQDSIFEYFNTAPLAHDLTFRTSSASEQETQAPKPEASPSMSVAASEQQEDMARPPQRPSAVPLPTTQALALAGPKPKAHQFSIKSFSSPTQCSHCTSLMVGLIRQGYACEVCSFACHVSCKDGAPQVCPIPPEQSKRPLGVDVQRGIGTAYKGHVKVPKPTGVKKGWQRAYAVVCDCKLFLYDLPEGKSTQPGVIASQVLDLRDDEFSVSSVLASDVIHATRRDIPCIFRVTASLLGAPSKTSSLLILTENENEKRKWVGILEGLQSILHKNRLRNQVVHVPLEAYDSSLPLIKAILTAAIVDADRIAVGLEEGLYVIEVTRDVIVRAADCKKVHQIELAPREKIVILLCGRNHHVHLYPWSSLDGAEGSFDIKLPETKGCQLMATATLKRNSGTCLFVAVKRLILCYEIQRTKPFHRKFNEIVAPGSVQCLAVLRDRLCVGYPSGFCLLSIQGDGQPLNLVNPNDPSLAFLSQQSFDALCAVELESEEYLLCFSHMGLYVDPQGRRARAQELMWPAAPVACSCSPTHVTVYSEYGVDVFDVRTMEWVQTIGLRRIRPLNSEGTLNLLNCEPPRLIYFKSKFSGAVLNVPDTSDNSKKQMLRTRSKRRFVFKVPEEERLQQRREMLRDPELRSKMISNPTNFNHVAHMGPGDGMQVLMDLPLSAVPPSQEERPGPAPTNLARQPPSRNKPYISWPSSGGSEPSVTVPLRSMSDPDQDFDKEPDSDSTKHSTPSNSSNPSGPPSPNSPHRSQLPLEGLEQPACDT

[20] = tested on: Angiopoietin-1 receptor (Homo sapiens), Q02763 [Q939H,Q940H,Y897S]; assay: Inhibition of human Tie2 Q939H/Q940H/Y897S mutant (771 to end residues) assessed as residual activity at 1 uM using EFPIYDFLPAKKK as substrate measured after 40 mins in presence of [gamma33P]ATP by scintillation counting method relative to control
[21] = biological target: Serine/threonine-protein kinase TAO1 (Homo sapiens) (UniProt Q7L7X3); assay: Inhibition of human TAO1 (1 to 327 residues) assessed as residual activity at 1 uM using myelin basic protein as substrate measured after 40 mins in presence of [gamma33P]ATP by scintillation counting method relative to control

SMILES: C=CCOC(=O)c1cc(-c2ccc(/C=C3/NC(=S)NC3=O)o2)ccc1Cl
- Activity [1]: 21%
- Activity [2]: 105%
- Activity [3]: 90%
- Activity [4]: 106%
- Activity [5]: 74%
- Activity [6]: 92%
- Activity [7]: 93%
- Activity [8]: 105%
- Activity [9]: 78%
- Activity [10]: 113%
- Activity [11]: 92%
- Activity [12]: 100%
- Activity [13]: 79%
- Activity [14]: 96%
- Activity (Homo sapiens [15]): 91%
- Activity [16]: 105%
- Activity (Homo sapiens [17]): 91%
- Activity [18]: 98%
- Activity [19]: 110%
- Activity [20]: 98%
- Activity [21]: 82%

SMILES: N=C1NC(=O)/C(=C\c2ccc(-c3cccc([N+](=O)[O-])c3)o2)S1
- Activity [1]: 9%
- Activity [2]: 89%
- Activity [3]: 100%
- Activity [4]: 97%
- Activity [5]: 92%
- Activity [6]: 100%
- Activity [7]: 37%
- Activity [8]: 102%
- Activity [9]: 85%
- Activity [10]: 100%
- Activity [11]: 111%
- Activity [12]: 99%
- Activity [13]: 99%
- Activity [14]: 100%
- Activity (Homo sapiens [15]): 89%
- Activity [16]: 92%
- Activity (Homo sapiens [17]): 83%
- Activity [18]: 102%
- Activity [19]: 94%
- Activity [20]: 103%
- Activity [21]: 52%
